The test system of the assay is COL1A1. The assay is described as follows: Gene expression custom microarray, pooled keratinocyte line (Example 3): COL1A1. Particulars: pooled keratinocytes, 20 ppm, 24 hr. Format: cell-based, human. The method, then:
Cell cultures: Received and began culture of pooled keratinocyte line from Promocell (C-12006; Lot #448Z026). Cells were seeded into a 75 cm2 flask and 2 6 well dishes for expansion and exposure per manufacturer's protocol using Keratinocyte Growth Medium (C2011B), Keratinocyte Supplement Mix (C39016) and CaCl (C34005). 2 ml of prepared solution were added to each of the 6 wells and 7 ml was added to the 75 cm2 flask.
Experimental phase: When the appropriate quantity of cells were grown, they were detached as described above, but at the final step were seeded into each well of one or more 6 well dishes. Each well received 2 ml of the cells suspended in suspension so they were seeded equally. The dishes were returned to the incubator until 85-95% confluency is reached.
It was at this stage that all wells were rinsed in PBS after aspirating the growth media. The compound(s) to be tested were previously mixed into a suitable solvent (e.g., DMSO or ethanol) that can be diluted to the desired concentration of test compound (10 μl) in the culture wells without exceeding maximum solvent concentrations and adversely effecting cell viability, and mixed with Basal Keratinocyte Media. NOTE: Standard maximum levels of solvent are 0.1% for DMSO and 0.5% for ETOH. The concentration for each tested compound/natural extract is generally listed in the left-hand column of Table 4. For certain compositions (e.g., compositions 15 and 16), other concentrations were used and are noted in the body of Table 4.
Every 2 wells on the 6 well plate served as a biological replicate for the purposes of RNA isolation and genetic expression evaluations making each 6 well dish an n=3 for the test compound contained in the media. […]
At the end of the 24 hr time period, the plates were removed from the incubator, the test media aspirated, and the cells rinsed with PBS. […] Allow 1 minute for saturation of the membrane and then centrifuge for 2 minutes to complete the RNA elution. • Quantify the quantity of RNA and store at −20 C° until use (no more than 1 month) […]

For the compound `CCCCCCCCCCCCCCCC(=O)NCCO` [N-palmitoylethanolamide], the “↑COL1A1 gene expression, fold increase or decrease vs untreated cells” value was −2 fold.
On to `CC(C)[C@]12O[C@H]1[C@@H]1O[C@]13[C@]1(O[C@H]1C[C@H]1C4=C(CC[C@@]13C)C(=O)OC4)[C@@H]2O` [Triptolide], for which the “↑COL1A1 gene expression, fold increase or decrease vs untreated cells” value was −1.3 fold.
As for `C=C(C)[C@@H]1CCC(C)=C[C@H]1c1c(O)cc(CCCCC)cc1O` [CBD, cannabidiol, reference compound], the “↑COL1A1 gene expression, fold increase or decrease vs untreated cells” value was found to be 1.6 fold.

(Values after patent US20220202739A1, “ENDOCANNABINOID MIMETIC AND ANTI-INFLAMMATORY COMPOUND CONTAINING COMPOSITIONS, METHODS OF PREPARATION AND USES THEREOF” (priority 2019, published 2022).)
